# Test results: ChEMBL document CHEMBL3885881, “DrugMatrix”
# Organism: Rattus norvegicus
# Assay: DrugMatrix - Regimen: Daily Repeat
# Format: toxicity, organism-based, Sprague-Dawley
# Set-up: regimen Daily Repeat, gender Male, age 6-8 weeks
# Conditions: in vivo, po, route oral GAVAGE, vehicle 100 % WATER; for URIC ACID / ALANINE AMINOTRANSFERASE / ALBUMIN / ALKALINE PHOSPHATASE / ASPARTATE AMINOTRANSFERASE / BLOOD UREA NITROGEN / CARBON DIOXIDE / CHLORIDE / CHOLESTEROL / CREATINE PHOSPHOKINASE / CREATININE / GLUCOSE / LACTATE DEHYDROGENASE / LIPASE / PHOSPHORUS / POTASSIUM / SODIUM / TOTAL BILIRUBIN / TOTAL PROTEIN: tissue Plasma; for ABSOLUTE BASOPHIL / ABSOLUTE EOSINOPHIL / ABSOLUTE LYMPHOCYTE / ABSOLUTE MONOCYTE / ABSOLUTE SEGMENTED NEUTROPHIL / BASOPHIL / EOSINOPHIL / ERYTHROCYTE COUNT / HEMATOCRIT / HEMOGLOBIN / LEUKOCYTE COUNT / LYMPHOCYTE / MEAN CORPUSCULAR HEMOGLOBIN / MEAN CORPUSCULAR HEMOGLOBIN CONCENTRATION / MONOCYTE / NEUTROPHIL / NUCLEATED RED BLOOD CELLS / PLATELET COUNT: tissue Blood
# [1] = 50 mg/kg, 120 h, dose level Low, time 5 day
# [2] = 1750 mg/kg, 72 h, dose level High, time 3 day
# [3] = 1750 mg/kg, 120 h, dose level High, time 5 day
smiles,measurement,setting,value
C[C@H](CS)C(=O)N1CCC[C@H]1C(=O)O [CAPTOPRIL],URIC ACID,"50 mg/kg, 72 h, dose level Low, time 3 day",1.37 mg/dL
same,ABSOLUTE BASOPHIL,[1],0 CELLS/uL
same,ABSOLUTE EOSINOPHIL,[1],130 CELLS/uL
same,ABSOLUTE LYMPHOCYTE,[1],12459.67 CELLS/uL
same,ABSOLUTE MONOCYTE,[1],96.33 CELLS/uL
same,ABSOLUTE SEGMENTED NEUTROPHIL,[1],1180.67 CELLS/uL
same,BASOPHIL,[1],0%
same,EOSINOPHIL,[1],1%
same,ERYTHROCYTE COUNT,[1],5.51 x10E6/uL
same,HEMATOCRIT,[1],34.87%
same,HEMOGLOBIN,[1],14.1 G/DL
same,LEUKOCYTE COUNT,[1],13.87 x10E3/uL
same,LYMPHOCYTE,[1],90%
same,MEAN CORPUSCULAR HEMOGLOBIN,[1],25.63 pg
same,MEAN CORPUSCULAR HEMOGLOBIN CONCENTRATION,[1],40.43 G/DL
same,MONOCYTE,[1],0.67%
same,NEUTROPHIL,[1],8.33%
same,NUCLEATED RED BLOOD CELLS,[1],0.33 /100WBC
same,PLATELET COUNT,[1],1341.67 x10E3/uL
same,ALANINE AMINOTRANSFERASE,[1],46.33 u/L
same,ALBUMIN,[1],4.37 G/DL
same,ALKALINE PHOSPHATASE,[1],377.67 u/L
same,ASPARTATE AMINOTRANSFERASE,[1],83.33 u/L
same,BLOOD UREA NITROGEN,[1],16.67 mg/dL
same,CARBON DIOXIDE,[1],30.67 mmol/L
same,CHLORIDE,[1],100.33 MEQ/L
same,CHOLESTEROL,[1],79.67 mg/dL
same,CREATINE PHOSPHOKINASE,[1],326.33 u/L
same,CREATININE,[1],0.2 mg/dL
same,GLUCOSE,[1],140.67 mg/dL
same,LACTATE DEHYDROGENASE,[1],506 u/L
same,LIPASE,[1],12.67 u/L
same,PHOSPHORUS,[1],10.43 mg/dL
same,POTASSIUM,[1],6.71 MEQ/L
same,SODIUM,[1],141.93 MEQ/L
same,TOTAL BILIRUBIN,[1],0.2 mg/dL
same,TOTAL PROTEIN,[1],6.37 G/DL
same,URIC ACID,[1],1.4 mg/dL
same,ABSOLUTE BASOPHIL,[2],0 CELLS/uL
same,ABSOLUTE EOSINOPHIL,[2],0 CELLS/uL
same,ABSOLUTE LYMPHOCYTE,[2],14323.33 CELLS/uL
same,ABSOLUTE MONOCYTE,[2],220.67 CELLS/uL
same,ABSOLUTE SEGMENTED NEUTROPHIL,[2],1556 CELLS/uL
same,BASOPHIL,[2],0%
same,EOSINOPHIL,[2],0%
same,ERYTHROCYTE COUNT,[2],5.51 x10E6/uL
same,HEMATOCRIT,[2],34.3%
same,HEMOGLOBIN,[2],13.6 G/DL
same,LEUKOCYTE COUNT,[2],16.1 x10E3/uL
same,LYMPHOCYTE,[2],89%
same,MEAN CORPUSCULAR HEMOGLOBIN,[2],24.73 pg
same,MEAN CORPUSCULAR HEMOGLOBIN CONCENTRATION,[2],39.67 G/DL
same,MONOCYTE,[2],1.33%
same,NEUTROPHIL,[2],9.67%
same,NUCLEATED RED BLOOD CELLS,[2],0.67 /100WBC
same,PLATELET COUNT,[2],1393 x10E3/uL
same,ALANINE AMINOTRANSFERASE,[2],54.67 u/L
same,ALBUMIN,[2],4.07 G/DL
same,ALKALINE PHOSPHATASE,[2],365.33 u/L
same,ASPARTATE AMINOTRANSFERASE,[2],87 u/L
same,BLOOD UREA NITROGEN,[2],25.67 mg/dL
same,CARBON DIOXIDE,[2],24 mmol/L
same,CHLORIDE,[2],100.67 MEQ/L
same,CHOLESTEROL,[2],71.67 mg/dL
same,CREATINE PHOSPHOKINASE,[2],349.33 u/L
same,CREATININE,[2],0.16 mg/dL
same,GLUCOSE,[2],152.33 mg/dL
same,LACTATE DEHYDROGENASE,[2],356 u/L
same,LIPASE,[2],10.33 u/L
same,PHOSPHORUS,[2],11.53 mg/dL
same,SODIUM,[2],139.9 MEQ/L
same,TOTAL BILIRUBIN,[2],0.2 mg/dL
same,TOTAL PROTEIN,[2],5.73 G/DL
same,URIC ACID,[2],1.27 mg/dL
same,ABSOLUTE BASOPHIL,[3],0 CELLS/uL
same,ABSOLUTE EOSINOPHIL,[3],0 CELLS/uL
same,ABSOLUTE LYMPHOCYTE,[3],12668 CELLS/uL
same,ABSOLUTE MONOCYTE,[3],119.33 CELLS/uL
same,ABSOLUTE SEGMENTED NEUTROPHIL,[3],946 CELLS/uL
same,BASOPHIL,[3],0%
same,EOSINOPHIL,[3],0%
same,ERYTHROCYTE COUNT,[3],5.54 x10E6/uL
same,HEMATOCRIT,[3],34.7%
same,HEMOGLOBIN,[3],13.83 G/DL
same,LEUKOCYTE COUNT,[3],13.73 x10E3/uL
same,LYMPHOCYTE,[3],92.33%
same,MEAN CORPUSCULAR HEMOGLOBIN,[3],25.03 pg
same,MEAN CORPUSCULAR HEMOGLOBIN CONCENTRATION,[3],39.9 G/DL
same,MONOCYTE,[3],1%
same,NEUTROPHIL,[3],6.67%
same,NUCLEATED RED BLOOD CELLS,[3],0 /100WBC
same,PLATELET COUNT,[3],1353.67 x10E3/uL
same,ALANINE AMINOTRANSFERASE,[3],53.67 u/L
same,ALBUMIN,[3],4.13 G/DL
same,ALKALINE PHOSPHATASE,[3],415 u/L
same,ASPARTATE AMINOTRANSFERASE,[3],102 u/L
same,BLOOD UREA NITROGEN,[3],39.33 mg/dL
same,CARBON DIOXIDE,[3],24.33 mmol/L
same,CHLORIDE,[3],102.33 MEQ/L
same,CHOLESTEROL,[3],70.33 mg/dL
same,CREATINE PHOSPHOKINASE,[3],594.67 u/L
same,CREATININE,[3],0.33 mg/dL
same,GLUCOSE,[3],145.33 mg/dL
same,LACTATE DEHYDROGENASE,[3],1114.33 u/L
same,LIPASE,[3],11 u/L
same,PHOSPHORUS,[3],10.47 mg/dL
same,POTASSIUM,[3],6.84 MEQ/L
same,SODIUM,[3],141.27 MEQ/L
same,TOTAL BILIRUBIN,[3],0.23 mg/dL
same,TOTAL PROTEIN,[3],6.03 G/DL
same,URIC ACID,[3],1.87 mg/dL
